Results on 7 compounds are retold here after patent US5612474A, “Acid labile immunoconjugate intermediates” (Eli Lilly and Company, priority 1994, dated 1997).

Values after ≈ are worked out from the molar mass of the structure shown.

The subject of one data set is CCRF-CEM cells. As to the kind of experiment: In vitro antitumor activity / growth inhibition of CCRF-CEM cells, 72 hours. Format: cell-based. Particulars: Homo sapiens, serum-free UltraCHO media, read-out: IC50 (50% inhibition of growth). Here is the method:
The in vitro data were obtained using CCRF-CEM cells, a human leukemia cell line. Foley et al., Cancer, 18:522 (1965). These cells were grown in albumin-free UltraCHO® media (BioWhittaker, Inc., Walkersville, Md.) using standard techniques. See, e.g., G. B. Grindey, et al., Journal of Molecular Pharmacology, 16:601 (1979). Dose-response curves were generated for various compounds to determine the concentration required for 50% inhibition of growth (IC50). Cluster plates were prepared in duplicate with the compound at various concentrations. Test compounds were dissolved initially in DMSO at a concentration of 4 mg/ml and further diluted with solvent to the desired concentration. Cells in serum-free UltraCHO media were added to the well at a final concentration of 4.8×10^4 cells/well in a total volume of 2.0 ml. After 72 hours of incubation (95% air, 5% CO2), cell numbers were determined on a ZBI Coulter counter. Cell number for indicated controls at the end of incubation was usually (4-6)×10^5 cells/well. Cell viability was also measured by staining with 3-[4,5-dimethylthiazol-2-yl]-2,5-diphenyl-tetrazolium bromide (MTT) using standard techniques. R. I. Freshhey, Culture of Animal Cells: A Manual of Basic Technique, 253-354 (2d ed. 1987).
Column 1 refers to the example number of the compound tested; Column 2 depicts the in vitro cytoxicity against CCRF-CEM cells by relating the concentration of the test compound required for 50% inhibition of growth (IC50) of the cells in the well.

Data set [1] in a line: Cardiotoxicity / toxicity of free drug versus trityl prodrug (no method described). The following applies: for use in oncolytic therapy.
Data set [2] relates to HC-1 human colon carcinoma xenograft. Description: Antitumor activity against HC-1 human colon carcinoma xenografts in nude mice. Format: in vivo, human tumor in CD1 Nu/Nu mice. Particulars: for Activity (overall): overall activity over all doses. The text has this: One of the tumor models used for showing the anti-neoplastic activity of the prodrugs of this invention were the human colon xenografts, HC-1 human colon xenograft. This tumor model was obtained from the Division of Cancer Treatment, National Cancer Institute, Tumor Bank.
First passage tumors were stored in liquid nitrogen, using standard techniques. The transplanted tumor was reestablished from the Tumor Bank every six months or as needed. The tumor was maintained by serial passage twice weekly in nude mice.
In the procedures utilized here, the tumor was removed from passage animals and minced into 1- to 3-mm cubic fragments using sterile techniques. Tumor pieces were checked for sterility using both Antibiotic Medium 1 and Brain Heart Infusion (Difco, Detroit, Mich.). The xenograft tumor pieces were implanted into the recipient CD1 Nu/Nu mice subcutaneously in an axillary site by trochar.
Drug therapy on the appropriate schedule was initiated 14 days after tumor implantation for the mice bearing the xenograft tumors. The compound being tested was mixed with 2.5% Emulphor EL620 from GAP Corporation (1:40 dilution in 0.9% saline). The total dosage volume for each administration was 0.5 ml. All animals were weighed at the beginning and end of administration of the subject compounds. Food and water were provided ad libitum.
Each control group and each dosage level of the treated groups consisted of 9 or 10 mice selected at random from the pool of implanted animals. The formulations were administered intraperitoneally. Compounds were dosed on days 1, 4, 7, and 10 for all prodrugs except for MMeT which was dosed on days 1,5, and 9.
The tumor was measured five days after treatment ended with two dimensional measurements (width and length) of the tumor taken using digital electronic calipers interfaced to a microcomputer. J. P. Worzalla, et al., Investigational New Drugs, 8:241-251 (1990). Tumor weights were calculated from these measurements using the following formula: [formula] At least one control group of an equal number of mice was treated with the same volume of 2.5% Emulphor only. The percent inhibition is determined by subtracting the ratio of the mean tumor size of the test group relative to the control group from one and multiplying the result by 100.
The results of several experiments in mice bearing the HC-1 human colon carcinoma when the Formula III compounds were administered orally are provided in Table V. Row 1 describes the particular compound being tested. Row 15 describes the overall activity of the compound. Column 1 gives the dosage level of the compound of Formula III and ADDFA in mg/kg. The second column gives the percent inhibition of tumor growth by the ADDFA given systemically. Colums 3 through 7 gives the percent inhibition of tumor growth of the compounds of Formula III.
(A xenograft is tissue or cells of one species grown in another, often human tumour cells in immunodeficient mice.)

The test system of data set [3] is LS-174T human colon carcinoma. Description: Cytotoxicity assay of immunoconjugates, 3H-leucine uptake, 48 hours. Format: cell-based. Particulars: LS174T, LS 174T cells, 48 hours incubation, concentrations in terms of drug contained in conjugate. The text has this:
Table III uses several abbreviations which are defined as follows. The terms D612, COL-1, CC83, and CC49 refer to specific murine monoclonal antibodies which are described in detail in the Antibody section of the Detailed Description. […] "CR#" is an abbreviation for conjugation ratio. "MIR" refers to the molar input ratio of the linker-drug relative to the antibody.

The nature of data set [4]: Release studies: rate of free drug release from isopropylamide linker-drug by NMR. Format: physicochemical. On the procedure:
The isopropylamide linker-drug (2 mg) was dissolved in 0.3 ml of dry deuterated methanol (CD3 OD). A solution of potassium phosphate buffer in deuteratured water (D2 O) (0.2 ml) of appropriate pH was added. The resulting solution was transferred to an NMR tube and heated at 37° C. and NMR spectra were recorded periodically. The rate of appearance of free drug and the rate of disappearance of the starting material were calculated from the peak integrals at: […]
NMR spectra (CD3 OD/0.1M KD2 PO4)

Where [5] appears, read: pH 5.40, CD3OD/0.1M KD2PO4, 37° C.
Setting [6] is: pH 6.40, CD3OD/0.1M KD2PO4, 37° C.
[7] abbreviates: pH 7.40, CD3OD/0.1M KD2PO4, 37° C., extrapolated.

As for `Nc1nc(N)c2ncn([C@@H]3O[C@H](CO)[C@@H](O)C3(F)F)c2n1` [ADDFA, 2-Amino-2'-deoxy-2',2'-difluoroadenosine, reference compound], the figures for the 50% inhibitory concentration (IC50) (with CCRF-CEM cells; in data set [3]) were 0.024 µg/mL (≈ 0.0794 µM) and 0.26 µg/mL (≈ 0.86 µM), respectively. Also, the cardiotoxicity result in data set [1] was “too much cardiotoxicity”. Further, the “Percent Inhibition” value in data set [2] (17.5 mg/kg), in data set [2] (20.0 mg/kg), in data set [2] (25.0 mg/kg), in data set [2] (32.5 mg/kg), in data set [2] (35.0 mg/kg) and in data set [2] (40.0 mg/kg) was 100% in each case. Moreover, the “Percent Inhibition” value in data set [2] (50.0 mg/kg), in data set [2] (65.0 mg/kg), in data set [2] (70.0 mg/kg), in data set [2] (80.0 mg/kg), in data set [2] (100.0 mg/kg) and in data set [2] (130.0 mg/kg) was 100% throughout. In addition, the “Activity (overall)” value in data set [2] is reported as “+++ (95-100% Inhibition)”.

Turning to `COc1ccc(C(Nc2nc(N)nc3c2ncn3[C@@H]2O[C@H](CO)[C@@H](O)C2(F)F)(c2ccc(OC)cc2)c2ccc(C(=O)NC(C)C)cc2)cc1` [DMT, N-Isopropyl-4-[bis-(4-methoxyphenyl)-6-N-[2-amino-9-(2'-deoxy-2',2'-difluoro-β-ribofuranosyl)purinyl]methyl]benzamide], the t1/2 is 3.71 h in data set [4] (setting [5]); 14.8 h in data set [4] (setting [6]); 146.3 h in data set [4] (pH 7.40, CD3OD/0.1M KD2PO4, 37° C.). Also, the IC50 (in general, the concentration at which inhibition is half-maximal) in the data set with CCRF-CEM cells worked out at 0.078 µg/mL (≈ 0.113 µM). For the same compound, the “Percent Inhibition” value in data set [2] (25.0 mg/kg) was 97%; in data set [2] (50.0 mg/kg) it was 99%; in data set [2] (100.0 mg/kg), 99%. The “Activity (overall)” value in data set [2] is on record as “+++ (95-100% Inhibition)”.

With `COc1ccc(C(Nc2nc(N)nc3c2ncn3[C@@H]2O[C@H](CO)[C@@H](O)C2(F)F)(c2ccccc2)c2ccc(C(=O)NC(C)C)cc2)cc1` (stereo partly shown) [MMT], the t1/2 is given as 16.7 h in data set [4] (setting [5]); 547 h in data set [4] (pH 6.40, CD3OD/0.1M KD2PO4, 37° C., extrapolated); 800 h in data set [4] (setting [7]). For the same compound, the half-maximal inhibitory concentration (IC50) with CCRF-CEM cells worked out at 0.1 µg/mL (≈ 0.152 µM). The “Percent Inhibition” value in data set [2] (32.5 mg/kg) came out at 95%; in data set [2] (65.0 mg/kg), 96%; in data set [2] (130.0 mg/kg) it was 93%. The “Activity (overall)” value in data set [2] was “+++ (95-100% Inhibition)”.

With `COc1ccc(C(Nc2nc(N)nc3c2ncn3[C@@H]2O[C@H](CO)[C@@H](O)C2(F)F)(c2ccc(C)cc2)c2ccc(C(=O)NC(C)C)cc2)cc1` (stereo partly drawn) [MMeT, N-Isopropyl-4-[4-methoxyphenyl-4'methylphenyl-6-N-[2-amino-9-(2'-deoxy-2',2'-difluoro-β-ribofuranosyl)purinyl]methyl]benzamide], the IC50 in the data set on CCRF-CEM cells was found to be 0.1 µg/mL (≈ 0.148 µM). The figures for the “Percent Inhibition” value in data set [2] (20.0 mg/kg), in data set [2] (40.0 mg/kg) and in data set [2] (80.0 mg/kg) were 95%, 98% and 98%, respectively. In addition, the “Activity (overall)” value in data set [2] is recorded as “+++ (95-100% Inhibition)”.

In the case of `Cc1ccc(C(Nc2nc(N)nc3c2ncn3[C@@H]2O[C@H](CO)[C@@H](O)C2(F)F)(c2ccccc2)c2ccc(C(=O)NC(C)C)cc2)cc1` (stereo partly shown) [MeT], the IC50 in the data set with CCRF-CEM cells turned out to be 0.8 µg/mL (≈ 1.24 µM). The “Percent Inhibition” value is reported as 41% in data set [2] (20.0 mg/kg), 58% in data set [2] (40.0 mg/kg) and 92% in data set [2] (80.0 mg/kg). Moreover, the “Activity (overall)” value in data set [2] is reported as “++ (80-94% Inhibition)”.

As to `CC(C)NC(=O)c1ccc(C(Nc2nc(N)nc3c2ncn3[C@@H]2O[C@H](CO)[C@@H](O)C2(F)F)(c2ccccc2)c2ccccc2)cc1` [T, N-Isopropyl-4-[bis-phenyl-6-N-[2-amino-9-(2'-deoxy-2',2'-difluoro-β-ribofuranosyl)purinyl]methyl]benzamide], in data set [4] (pH 5.40, 6.40, 7.40, up to t = 800), the “fragmentation under pH conditions used” value is reported as “no fragmentation”. In the data set on CCRF-CEM cells, the half-maximal inhibitory concentration (IC50) was 1.7 µg/mL (≈ 2.7 µM). For the same compound, the “Percent Inhibition” value is given as 14% in data set [2] (17.5 mg/kg), 28% in data set [2] (35.0 mg/kg) and 04% in data set [2] (70.0 mg/kg). In addition, the “Activity (overall)” value in data set [2] is “- (<60% Inhibition)”.

Regarding `COc1ccc(C(Nc2nc(N)nc3c2ncn3[C@@H]2O[C@H](CO)[C@@H](O)C2(F)F)(c2ccc(OC)cc2)c2cccc(C(=O)NC(C)C)c2)cc1` [mDMT, N-Isopropyl-3-[bis-(4-methoxyphenyl)-6-N-[2-amino-9-(2'-deoxy-2',2'-difluoro-β-ribofuranosyl)purinyl]methyl]benzamide], the t1/2 in data set [4] (setting [5]) was 2.35 h; in data set [4] (setting [6]), 23.3 h; in data set [4] (setting [7]), 133.3 h. Moreover, in the data set with CCRF-CEM cells, the IC50 is 0.084 µg/mL (≈ 0.122 µM).
